Reference: ChEMBL document CHEMBL1139370, “Discovery of 1-[9-(4-chlorophenyl)-8-(2-chlorophenyl)-9H-purin-6-yl]-4-ethylaminopiperidine-4-carboxylic acid amide hydrochloride (CP-945,598), a novel, potent, and selective cannabinoid type 1 receptor antagonist” (J Med Chem, 2009)
Activity calls are given as the source filed them. The calls are words filed in the database; no cut-off is given here.

What was measured:
[1] = Metabolic stability in rat liver microsomes assessed as intrinsic clearance; type: ADME, Microsome
[2] = target: Voltage-gated inwardly rectifying potassium channel KCNH2 (Homo sapiens, UniProt Q12809); assay: Inhibition of human ERG
Sequence of Voltage-gated inwardly rectifying potassium channel KCNH2 (Q12809 whole entry): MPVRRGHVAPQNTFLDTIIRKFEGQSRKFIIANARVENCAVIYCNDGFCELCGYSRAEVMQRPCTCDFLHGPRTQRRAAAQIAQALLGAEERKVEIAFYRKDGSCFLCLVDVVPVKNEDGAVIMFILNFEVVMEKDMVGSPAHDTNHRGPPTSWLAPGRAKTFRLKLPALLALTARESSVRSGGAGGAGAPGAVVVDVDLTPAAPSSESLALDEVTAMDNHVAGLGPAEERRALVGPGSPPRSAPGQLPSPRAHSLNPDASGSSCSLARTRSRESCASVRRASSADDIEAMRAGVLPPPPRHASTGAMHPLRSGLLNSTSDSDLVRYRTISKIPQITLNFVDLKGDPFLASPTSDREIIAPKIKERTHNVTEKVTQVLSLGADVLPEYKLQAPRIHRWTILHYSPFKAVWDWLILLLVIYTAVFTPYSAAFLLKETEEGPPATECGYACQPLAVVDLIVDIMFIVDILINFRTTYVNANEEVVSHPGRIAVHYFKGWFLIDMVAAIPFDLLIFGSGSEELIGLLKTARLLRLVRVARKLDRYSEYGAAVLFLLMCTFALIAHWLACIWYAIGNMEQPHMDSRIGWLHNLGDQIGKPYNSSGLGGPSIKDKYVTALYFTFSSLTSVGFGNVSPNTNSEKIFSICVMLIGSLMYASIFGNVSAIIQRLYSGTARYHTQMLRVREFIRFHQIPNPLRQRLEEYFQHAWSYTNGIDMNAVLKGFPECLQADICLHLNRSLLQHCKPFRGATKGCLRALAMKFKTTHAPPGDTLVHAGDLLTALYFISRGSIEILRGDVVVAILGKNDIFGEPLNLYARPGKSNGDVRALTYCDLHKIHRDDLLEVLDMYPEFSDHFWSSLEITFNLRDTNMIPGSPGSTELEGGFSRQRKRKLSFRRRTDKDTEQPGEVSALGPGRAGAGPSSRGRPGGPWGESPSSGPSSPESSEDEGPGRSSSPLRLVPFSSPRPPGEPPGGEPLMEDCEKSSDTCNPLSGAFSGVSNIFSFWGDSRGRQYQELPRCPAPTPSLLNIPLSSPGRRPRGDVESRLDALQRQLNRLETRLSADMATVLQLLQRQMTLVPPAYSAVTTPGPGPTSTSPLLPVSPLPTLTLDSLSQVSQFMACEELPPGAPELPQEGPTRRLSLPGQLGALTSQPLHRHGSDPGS

[3] = Thermodynamic solubility in 0.1 M phosphate buffered saline at pH 6.5 by reversed phase HPLC; type: physicochemical; conditions: buffer
[4] = Metabolic stability in human liver microsomes assessed as intrinsic clearance; type: ADME, Microsome
[5] = target: Cannabinoid receptor 1 (Rattus norvegicus, UniProt P20272); assay: Displacement of [3H]SR141716A from CB1 receptor in rat brain; type: tissue-based
Sequence of Cannabinoid receptor 1 (Rattus norvegicus, UniProt P20272) (P20272 whole entry): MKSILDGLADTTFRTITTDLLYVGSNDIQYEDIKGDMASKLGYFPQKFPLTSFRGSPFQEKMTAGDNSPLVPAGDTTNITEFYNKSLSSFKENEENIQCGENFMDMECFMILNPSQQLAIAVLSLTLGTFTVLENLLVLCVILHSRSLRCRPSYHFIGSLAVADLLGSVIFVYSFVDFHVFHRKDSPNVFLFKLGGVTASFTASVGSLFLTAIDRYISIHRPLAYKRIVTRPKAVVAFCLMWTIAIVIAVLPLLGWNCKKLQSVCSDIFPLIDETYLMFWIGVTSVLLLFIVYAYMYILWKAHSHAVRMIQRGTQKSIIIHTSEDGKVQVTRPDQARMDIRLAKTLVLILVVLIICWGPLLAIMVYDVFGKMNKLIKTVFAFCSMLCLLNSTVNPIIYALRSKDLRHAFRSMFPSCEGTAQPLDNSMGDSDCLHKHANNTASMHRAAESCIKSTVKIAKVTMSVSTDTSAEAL

[6] = Thermodynamic solubility in USP simulated gastric fluid at pH 1.2 by reversed phase HPLC; type: physicochemical; conditions: simulated gi fluid
[7] = target: T1, Cannabinoid receptor 1 (Homo sapiens, UniProt P21554); assay: biochemical; type: cell-based, HEK293
T1 sequence (P21554 whole entry): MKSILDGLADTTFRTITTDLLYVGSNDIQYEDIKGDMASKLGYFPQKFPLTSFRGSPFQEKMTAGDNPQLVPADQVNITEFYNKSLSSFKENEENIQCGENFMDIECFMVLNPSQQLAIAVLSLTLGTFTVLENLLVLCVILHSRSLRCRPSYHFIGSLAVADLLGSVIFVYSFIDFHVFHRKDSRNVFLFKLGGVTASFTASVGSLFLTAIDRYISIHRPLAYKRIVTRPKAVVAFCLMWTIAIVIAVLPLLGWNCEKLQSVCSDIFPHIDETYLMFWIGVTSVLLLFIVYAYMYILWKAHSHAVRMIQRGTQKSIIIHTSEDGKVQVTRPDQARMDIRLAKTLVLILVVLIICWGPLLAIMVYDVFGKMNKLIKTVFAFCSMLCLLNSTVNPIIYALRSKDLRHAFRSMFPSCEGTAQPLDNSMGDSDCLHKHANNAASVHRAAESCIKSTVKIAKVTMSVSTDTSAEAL

[8] = Lipophilicity, log D of the compound; type: physicochemical; conditions: octanol/water
[9] = target: T1, Cannabinoid receptor 1; assay: Antagonist activity against human CB1 receptor expressed in CHO-K1 cells by [35S]GTPgamma binding assay; type: functional, cell-based
[10] = test system: Rattus norvegicus; assay: Anorectic activity in Sprague-Dawley rat assessed as reduction in food intake at 10 mg/kg, po measured at 10 mins interval for 2 hrs by fast-induced refeeding assay relative to control; type: functional; design: scale not given: the % may be the effect or the level left
[11] = test system: Mus musculus; assay: Reversal of CP-55940-induced analgesia in ICR mouse at 10 mg/kg, sc pretreated 15 mins before CP-55940 challenge measured 45 mins post challenge by hot plate method; type: functional; conditions: route subcutaneous
[12] = test system: Mus musculus; assay: Reversal of CP-55940-induced hypothermia in ICR mouse at 10 mg/kg, sc pretreated 15 mins before CP-55940 challenge measured 65 mins post challenge; type: functional; conditions: route subcutaneous
[13] = Inhibition of P-gp assessed as ATP turnover at […] by cell-based ATPase assay
[14] = Induction of P-gp-mediated efflux in mdr1a/1b knockout mouse model
[15] = test system: Mus musculus; assay: Reversal of CP-55940-induced locomotor activity in ICR mouse at 10 mg/kg, sc pretreated 15 mins before CP-55940 challenge measured 25 mins post challenge; type: functional, organism-based; design: dose 10 mg/kg
[16] = test system: Mus musculus; assay: Reversal of CP-55940-induced catalepsy in ICR mouse at 10 mg/kg, sc pretreated 15 mins before CP-55940 challenge measured 90 mins post challenge; type: functional, organism-based; design: dose 10 mg/kg
[17] = Inhibition of P-gp by cell-based calcein-acetoxymethyl ester assay

SMILES | CLint scaled [1] [L/h/kg] | Thermodynamic solubility [3] | CLint scaled [4] [L/h/kg] | Ki [5] [nM] | Thermodynamic solubility [6] [ugA/ml] | Ki [7] [nM] | logD [8] | Ki [9] [nM] | IC50 [2] [nM] | Activity [10] [%] | Activity [11] [%] | Activity [12] [%] | Activity [13] | Activity [14] | Activity [15] | Activity [16] | IC50 [17] [nM]
CN1CCN(c2ncnc3c2nc(-c2ccccc2Cl)n3-c2ccc(Cl)cc2)CC1 | 90 | 0.33 ugA/ml | 18 | 24 | 1290 |  | 4.1 |  | 630 |  |  |  |  |  |  |  | 
CN1CCN(c2ncnc3c2nc(-c2ccc(Cl)cc2Cl)n3-c2ccc(Cl)cc2)CC1 | 354 | 0.7 ugA/ml | 44.4 | 5.9 | 4930 | 5.2 | 4.8 | 1.5 | 350 | 25 | 74 | 4 |  |  |  |  | 
CCNC1(C(N)=O)CCN(c2ncnc3c2nc(-c2ccccc2Cl)n3-c2ccc(Cl)cc2)CC1 [OTENABANT] | 72 | 1.3 ugA/ml | 44.4 | 2.8 | 291 |  | 4 |  | > 3000 | 54 | 85 | 73 | inactive | Active | Active | Active | 15000
Clc1ccc(-n2c(-c3ccc(Cl)cc3Cl)nc3c(N4CCCCC4)ncnc32)cc1 | 4620 | < 0.1 ugA/ml | 1680 | 4.2 | 3.5 | 6.1 | 5.9 | 1.7 | > 3000 | 6 | 72 | 29 |  |  |  |  | 

More lines, main results first:

CLint scaled [1] [L/h/kg] | Thermodynamic solubility [3] | CLint scaled [4] [L/h/kg] | Ki [5] [nM] | Thermodynamic solubility [6] [ugA/ml] | Ki [7] [nM] | logD [8] | Ki [9] [nM] | SMILES | IC50 [2] [nM] | Activity [10] [%] | Activity [11] [%] | Activity [12] [%] | Activity [13] | Activity [14] | Activity [15] | Activity [16] | IC50 [17] [nM]
540 |  |  |  |  |  |  |  | Cc1c(C(=O)NN2CCCCC2)nn(-c2ccc(Cl)cc2Cl)c1-c1ccc(Cl)cc1 [RIMONABANT] |  |  |  |  |  |  |  |  | 
246 | 1.4 ugA/ml | 102 | 3.6 | 161 | 7.4 | 5.3 | 1.7 | Clc1ccc(-n2c(-c3ccc(Cl)cc3Cl)nc3c(NN4CCCCC4)ncnc32)cc1 | 2700 |  |  |  |  |  |  |  | 
1440 | < 0.1 ugA/ml | 1680 | 12 | 4.1 | 7.1 | 6.3 | 1.5 | Clc1ccc(-n2c(-c3ccc(Cl)cc3Cl)nc3c(NC4CCCCC4)ncnc32)cc1 |  |  |  |  |  |  |  |  | 
516 | < 0.1 µgA/ml | 186 | 2.1 | 8.8 | 2.3 | 5.4 | 1.1 | Clc1ccc(-n2c(-c3ccccc3Cl)nc3c(N4CCCCC4)ncnc32)cc1 |  |  |  |  |  |  |  |  | 
